Reference: PMC10700596 (Nature Communications, 2023)
“And” between values parts separate entries of the source, which are not always exact repeats. Identical values can stand only once. Like-named read-outs stand apart in the source and are kept apart here.

Assay: in vivo
Type: in vivo, mice
Settings: mice; for concentration at 5 min / concentration at 15 min / concentration at 30 min / concentration at 60 min / concentration at 120 min / concentration at 240 min / concentration at 360 min / concentration at 480 min / concentration at 1440 min / CSF concentration, Final (individual sample) / Brain concentration, Final (individual sample) / Plasma concentration, Final (individual sample): 10 mg/kg, IP 10 mg/kg

SMILES: CCc1nc2c(C)nc(C)cc2n1-c1ccc(CCNC(=O)NS(=O)(=O)c2ccc(C)cc2)cc1 [Grapiprant, reference compound]
- concentration at 5 min (male, CD-1, mouse, CSF, ip, CSF, 5 min, mean of 3, read-out: CSF concentration C (mean)): 9.11 ng/mL
- concentration at 15 min (male, CD-1, mouse, CSF, ip, CSF, 15 min, individual animals, read-out: CSF concentration, Final (individual sample)): 1.21 ng/mL
- concentration at 15 min (male, CD-1, mouse, CSF, ip, CSF, 15 min, mean of 3, read-out: CSF concentration C (mean)): 1.7 ng/mL
- concentration at 30 min (male, CD-1, mouse, CSF, ip, CSF, 30 min, mean of 3, read-out: CSF concentration C (mean)): 3.94 ng/mL
- concentration at 60 min (male, CD-1, mouse, CSF, ip, CSF, 60 min, mean of 3, read-out: CSF concentration C (mean)): 0.35 ng/mL
- concentration at 120 min (male, CD-1, mouse, CSF, ip, CSF, 120 min, mean of 3, read-out: CSF concentration C (mean)): 1.36 ng/mL
- concentration at 240 min (male, CD-1, mouse, CSF, ip, CSF, 240 min, individual animals, read-out: CSF concentration, Final (individual sample)): 0 ng/mL
- concentration at 240 min (male, CD-1, mouse, CSF, ip, CSF, 240 min, mean of 3, read-out: CSF concentration C (mean)): 0 ng/mL
- concentration at 360 min (male, CD-1, mouse, CSF, ip, CSF, 360 min, individual animals, read-out: CSF concentration, Final (individual sample)): 0 ng/mL
- concentration at 360 min (male, CD-1, mouse, CSF, ip, CSF, 360 min, mean of 3, read-out: CSF concentration C (mean)): 0 ng/mL
- concentration at 480 min (male, CD-1, mouse, CSF, ip, CSF, 480 min, mean of 3, read-out: CSF concentration C (mean)): 0.4 ng/mL
- concentration at 1440 min (male, CD-1, mouse, CSF, ip, CSF, individual animals, read-out: CSF concentration, Final (individual sample)): 0 ng/mL
- concentration at 1440 min (male, CD-1, mouse, CSF, ip, CSF, mean of 3, read-out: CSF concentration C (mean)): 0 ng/mL
- concentration at 5 min (male, CD-1, mouse, brain, ip, brain, 5 min, individual animals, read-out: Brain concentration, Final (individual sample)): 20.4 ng/g
- concentration at 5 min (male, CD-1, mouse, brain, ip, brain, 5 min, mean of 3, read-out: Brain concentration C (mean)): 21.9 ng/g
- concentration at 15 min (male, CD-1, mouse, brain, ip, brain, 15 min, mean of 3, read-out: Brain concentration C (mean)): 14.9 ng/g
- concentration at 30 min (male, CD-1, mouse, brain, ip, brain, 30 min, individual animals, read-out: Brain concentration, Final (individual sample)): 11.3 ng/g
- concentration at 30 min (male, CD-1, mouse, brain, ip, brain, 30 min, mean of 3, read-out: Brain concentration C (mean)): 11.1 ng/g
- concentration at 60 min (male, CD-1, mouse, brain, ip, brain, 60 min, mean of 3, read-out: Brain concentration C (mean)): 6.66 ng/g
- concentration at 120 min (male, CD-1, mouse, brain, ip, brain, 120 min, individual animals, read-out: Brain concentration, Final (individual sample)): 0 ng/g
- concentration at 120 min (male, CD-1, mouse, brain, ip, brain, 120 min, mean of 3, read-out: Brain concentration C (mean)): 0 ng/g
- concentration at 240 min (male, CD-1, mouse, brain, ip, brain, 240 min, individual animals, read-out: Brain concentration, Final (individual sample)): 0 ng/g
- concentration at 240 min (male, CD-1, mouse, brain, ip, brain, 240 min, mean of 3, read-out: Brain concentration C (mean)): 0 ng/g
- concentration at 360 min (male, CD-1, mouse, brain, ip, brain, 360 min, individual animals, read-out: Brain concentration, Final (individual sample)): 0 ng/g
- concentration at 360 min (male, CD-1, mouse, brain, ip, brain, 360 min, mean of 3, read-out: Brain concentration C (mean)): 0 ng/g
- concentration at 480 min (male, CD-1, mouse, brain, ip, brain, 480 min, individual animals, read-out: Brain concentration, Final (individual sample)): 0 ng/g
- concentration at 480 min (male, CD-1, mouse, brain, ip, brain, 480 min, mean of 3, read-out: Brain concentration C (mean)): 0 ng/g
- concentration at 1440 min (male, CD-1, mouse, brain, ip, brain, individual animals, read-out: Brain concentration, Final (individual sample)): 0 ng/g
- concentration at 1440 min (male, CD-1, mouse, brain, ip, brain, mean of 3, read-out: Brain concentration C (mean)): 0 ng/g
- concentration at 5 min (male, CD-1, mouse, plasma, ip, plasma, 5 min, individual animals, read-out: Plasma concentration, Final (individual sample)): 546 ng/mL
- concentration at 5 min (male, CD-1, mouse, plasma, ip, plasma, 5 min, mean of 3, read-out: Plasma concentration C (mean)): 609 ng/mL
- concentration at 15 min (male, CD-1, mouse, plasma, ip, plasma, 15 min, mean of 3, read-out: Plasma concentration C (mean)): 834 ng/mL
- concentration at 30 min (male, CD-1, mouse, plasma, ip, plasma, 30 min, mean of 3, read-out: Plasma concentration C (mean)): 734 ng/mL
- concentration at 60 min (male, CD-1, mouse, plasma, ip, plasma, 60 min, mean of 3, read-out: Plasma concentration C (mean)): 393 ng/mL
- concentration at 120 min (male, CD-1, mouse, plasma, ip, plasma, 120 min, mean of 3, read-out: Plasma concentration C (mean)): 304 ng/mL
- concentration at 240 min (male, CD-1, mouse, plasma, ip, plasma, 240 min, mean of 3, read-out: Plasma concentration C (mean)): 31.1 ng/mL
- concentration at 360 min (male, CD-1, mouse, plasma, ip, plasma, 360 min, mean of 3, read-out: Plasma concentration C (mean)): 11.2 ng/mL
- concentration at 480 min (male, CD-1, mouse, plasma, ip, plasma, 480 min, individual animals, read-out: Plasma concentration, Final (individual sample)): 0 ng/mL
- concentration at 480 min (male, CD-1, mouse, plasma, ip, plasma, 480 min, mean of 3, read-out: Plasma concentration C (mean)): 0 ng/mL
- concentration at 1440 min (male, CD-1, mouse, plasma, ip, plasma, individual animals, read-out: Plasma concentration, Final (individual sample)): 0 ng/mL
- concentration at 1440 min (male, CD-1, mouse, plasma, ip, plasma, mean of 3, read-out: Plasma concentration C (mean)): 0 ng/mL
- Cmax (male, CD-1, mouse, plasma, ip, 10 mg/kg i.p.): 834 ng/mL
- AUC (male, CD-1, mouse, plasma, ip, 10 mg/kg i.p., read-out: plasma AUC (converted)): 1340 ng·h/mL
- CSF concentration, Final (individual sample) (CSF, 5 min, individual animals): 0 ng/mL and 11.4 ng/mL and 16.0 ng/mL
- CSF concentration, Final (individual sample) (CSF, 15 min, individual animals): 2.26 ng/mL and 1.62 ng/mL
- CSF concentration, Final (individual sample) (CSF, 30 min, individual animals): 2.31 ng/mL and 1.36 ng/mL and 8.16 ng/mL
- CSF concentration, Final (individual sample) (CSF, 60 min, individual animals): 1.05 ng/mL and 0 ng/mL
- CSF concentration, Final (individual sample) (CSF, 120 min, individual animals): 4.07 ng/mL and 0 ng/mL
- CSF concentration, Final (individual sample) (CSF, 480 min, individual animals): 1.20 ng/mL and 0 ng/mL
- Brain concentration, Final (individual sample) (brain, 5 min, individual animals): 29.4 ng/g and 15.9 ng/g
- Brain concentration, Final (individual sample) (brain, 15 min, individual animals): 15.1 ng/g and 20.3 ng/g and 9.28 ng/g
- Brain concentration, Final (individual sample) (brain, 30 min, individual animals): 9.04 ng/g and 12.8 ng/g
- Brain concentration, Final (individual sample) (brain, 60 min, individual animals): 7.24 ng/g and 0 ng/g and 12.8 ng/g
- Plasma concentration, Final (individual sample) (plasma, 5 min, individual animals): 525 ng/mL and 757 ng/mL
- Plasma concentration, Final (individual sample) (plasma, 15 min, individual animals): 1131 ng/mL and 825 ng/mL and 545 ng/mL
- Plasma concentration, Final (individual sample) (plasma, 30 min, individual animals): 543 ng/mL and 519 ng/mL and 1140 ng/mL
- Plasma concentration, Final (individual sample) (plasma, 60 min, individual animals): 539 ng/mL and 0 ng/mL and 640 ng/mL
- Plasma concentration, Final (individual sample) (plasma, 120 min, individual animals): 446 ng/mL and 153 ng/mL and 313 ng/mL
- Plasma concentration, Final (individual sample) (plasma, 240 min, individual animals): 33.6 ng/mL and 42.0 ng/mL and 17.7 ng/mL
- Plasma concentration, Final (individual sample) (plasma, 360 min, individual animals): 0 ng/mL and 34 ng/mL
